Experiments:
Format in all cases: cell-based, human
SW480 [1] = experiment: Cell growth / proliferation (cell number); details: for Number of cells / % inhibition: counted seven days after seeding; for Number of cells: control 1,500,000; for % Growth inhibition After 3 days: SW480, N6 or N7 20 μM, viable cell number vs untreated control, mean of at least 2 independent experiments
Experimental: (§1) Human breast (MDA-MB-231, MDA-MB-435 [37]), prostate (LNCaP, from American Type Culture Collection, ATCC, Rockville, MD), and cervical (HeLa) epithelial cancer cells were grown in DMEM-glutamax medium (Gibco Invitrogen, Cergy-Pontoise, France) containing GlutaMAX™, 4.5 g/l glucose and supplemented with 10% heat-inactivated (56°C for 30 min) fetal bovine serum (FBS; Hyclone, Thermo Fisher Scientific, Inc). Human SW480 cells are derived from a grade 3-4 colon carcinoma, while the highly metastatic counterpart SW620 is established from the lymph node of a person. Both SW480 and SW620 cells (obtained from Francis Raul, IRCAD) are highly tumorigenic in nude mice. They were cultured in D-MEM, 10% FCS. The murine melanoma TIII cell line was obtained from Armelle Prévost-Blondel. Murine T29 lymphoma cells, obtained from Philippe Kastner (CNRS, Strasbourg), have been established from Ik^L/L tumors from mice carrying a hypomorphic mutation (Ik^L/L) in the Ikaros gene encoding a transcription factor that regulates lymphocyte differentiation, and acts also as a tumor suppressor in T lymphocytes. The T29 cells were cultured in RPMI medium containing 25 mM Hepes pH 7.6, 1 mM sodium pyruvate, and 10% FCS. Human leukemia cell lines, Jurkat (acute T cell leukemia), HuT 78 (cutaneous T lymphocyte), RAJI (Burkitt lymphoma), and HL60 (promyelocytic leukemia) were cultured in RPMI-1640 medium (Gibco) containing GlutaMAX™, and supplemented with 10% heat-inactivated FBS as described before. The wild-type Chinese hamster ovary cell line (CHO K1) was purchased from American Type Culture Collection (ATCC; Rockville, MD). The CHO LRP1-null cell line (CHO-13-5-1) was kindly provided by D. Strickland [47]. They were cultured in Ham's F12K medium. All cells were cultured with 10% (v/v) heat inactivated (56°C, 30 min) fetal bovine serum (FBS) (Roche Molecular Biochemicals, Indianapolis, IN) and 50 international units/mL penicillin-streptomycin (Invitrogen). Cell death was monitored conveniently by uptake of the trypan blue dye due to plasma membrane permeability of dying and/or dead cells.

SW620 [2] = experiment: Cell growth / proliferation (cell number); details: for Number of cells / % inhibition: counted seven days after seeding; for Number of cells: control 1,800,000; for % Growth inhibition After 3 days: SW620, N6 or N7 20 μM, viable cell number vs untreated control, mean of at least 2 independent experiments
Experimental: as §1

MDA-MB 231 = experiment: Cell death (trypan blue uptake); details: MDA-MB 231, subconfluent, N6 or N7 20 μM, mean of at least 2 independent experiments
Experimental: as §1

HeLa = experiment: Cell death (trypan blue uptake); details: subconfluent, N6 or N7 20 μM, mean of at least 2 independent experiments
Experimental: as §1

LNCaP = experiment: Cell death (trypan blue uptake); details: subconfluent, N6 or N7 20 μM, mean of at least 2 independent experiments
Experimental: as §1

MDA-MB 435 = experiment: Cell death (trypan blue uptake); details: MDA-MB 435, subconfluent, N6 or N7 20 μM, mean of at least 2 independent experiments
Experimental: as §1

HL60 = experiment: Cell death (trypan blue uptake); details: HL60, freshly passaged, N6 or N7 20 μM, mean of at least 2 independent experiments
Experimental: as §1

SW480 [3] = experiment: Cell death (trypan blue uptake); details: SW480, subconfluent, N6 or N7 20 μM, mean of at least 2 independent experiments
Experimental: as §1

SW620 [4] = experiment: Cell death (trypan blue uptake); details: SW620, subconfluent, N6 or N7 20 μM, mean of at least 2 independent experiments
Experimental: as §1

Jurkat = experiment: Cell death (trypan blue uptake); details: freshly passaged, N6 or N7 20 μM, mean of at least 2 independent experiments
Experimental: as §1

RAJI = experiment: Cell death (trypan blue uptake); details: freshly passaged, N6 or N7 20 μM, mean of at least 2 independent experiments
Experimental: as §1

Ac-KAKPGKAKPGKAKPG-NH2 [Nucant N7, Presents hexavalently the pseudo-tripeptide Lysψ(CH2N)-Pro-Arg coupled to a similar template as in HB-19]
Number of cells (SW480 [1]; SW480, 10 μM added once 5 hours after seeding (20,000 cells/ml, 2 ml)): 1,200,000
% inhibition (SW480 [1]; SW480, 10 μM added once 5 hours after seeding): 20%
Number of cells (SW480 [1]; SW480, 20 μM added once 5 hours after seeding (20,000 cells/ml, 2 ml)): 900,000
% inhibition (SW480 [1]; SW480, 20 μM added once 5 hours after seeding): 40%
% Growth inhibition After 3 days (SW480 [1]): 25%
Number of cells (SW620 [2]; SW620, 10 μM added once 5 hours after seeding (20,000 cells/ml, 2 ml)): 1,000,000
% inhibition (SW620 [2]; SW620, 10 μM added once 5 hours after seeding): 44%
Number of cells (SW620 [2]; SW620, 20 μM added once 5 hours after seeding (20,000 cells/ml, 2 ml)): 700,000
% inhibition (SW620 [2]; SW620, 20 μM added once 5 hours after seeding): 61%
% Growth inhibition After 3 days (SW620 [2]): 45%
% Cell death After 24 hours (MDA-MB 231): < 5%
% Cell death After 24 hours (HeLa): < 5%
% Cell death After 24 hours (LNCaP): < 5%
% Cell death After 24 hours (MDA-MB 435): < 5%
% Cell death After 24 hours (HL60): 35%
% Cell death After 24 hours (SW480 [3]): < 5%
% Cell death After 24 hours (SW620 [4]): < 5%
% Cell death After 24 hours (Jurkat): 45%
% Cell death After 24 hours (RAJI): 42%

Ac-Lys-Aib-Gly-Lys-Aib-Gly-Lys-Aib-Gly-Lys-Aib-Gly-Lys-Aib-Gly-Lys-Aib-Gly-CONH2 [Nucant N6, Presents hexavalently the pseudo-tripeptide Lysψ(CH2N)-Pro-Arg coupled to the polypeptide template containing Aib]
% Growth inhibition After 3 days (SW480 [1]): 25%
% Growth inhibition After 3 days (SW620 [2]): 45%
% Cell death After 24 hours (MDA-MB 231): < 5%
% Cell death After 24 hours (HeLa): < 5%
% Cell death After 24 hours (LNCaP): < 5%
% Cell death After 24 hours (MDA-MB 435): < 5%
% Cell death After 24 hours (HL60): 35%
% Cell death After 24 hours (SW480 [3]): < 5%
% Cell death After 24 hours (SW620 [4]): < 5%
% Cell death After 24 hours (Jurkat): 45%
% Cell death After 24 hours (RAJI): 42%

Reference: article PMC3199867, “Targeting surface nucleolin with multivalent HB-19 and related Nucant pseudopeptides results in distinct inhibitory mechanisms depending on the malignant tumor cell type” (BMC Cancer, 2011)
